Experimental findings from article PMC9146163, “Novel Au Carbene Complexes as Promising Multi-Target Agents in Breast Cancer Treatment” (Pharmaceuticals, 2022) are described below.

One data set relates to MDA-MB-231 cells. Kind of data set: MTT assay, MDA-MB-231. It counts as cell-based, human. Particulars: read-out: IC50 MDA-MB-231. Here is the method: (§1) The five employed cell lines were purchased from American Type Culture Collection (ATCC, Manassas, VA, USA) and maintained as already reported. MCF-7, MDA-MB-231, MCF-10A and Hek-293 were cultured, as indicated by Iacopetta et al.. SkBr3 cells were maintained in DMEM high glucose, supplemented with 10% FBS and 100 μg/mL penicillin/streptomycin.
(§2) MTT assays [Sigma Aldrich (St.Louis, MO, USA)] were used in order to determine the in vitro anticancer activities of all the target compounds, as already reported.The compounds were tested at different concentrations (0.1-1-10-20-40 µM) for 72 h. Results are represented as percent (%) of basal and the IC50 values were calculated using GraphPad Prism 9 (GraphPad Software, La Jolla, CA, USA).
(Tetrazolium dyes change colour on reduction, which living cells bring about.)

Data set [1] concerns the target T1, Labeled Rabbit Muscle Actin (Oryctolagus cuniculus, UniProt P68135).
T1 construct: purchased Abcam (Actin Polymerization/Depolymerization Assay Kit)
Kind of data set: In vitro actin polymerization assay. It counts as biochemical. Particulars: 5 µM; for actin polymerization curve, final value: end of 1 h kinetic read, control about 37.000 RFU. Here is the method: (§3) The ability of the tested compounds to interfere with the actin polymerization and depolymerization reaction was measured using an Actin Polymerization/Depolymerization Assay Kit purchased from Abcam, following the manufacturer’s instructions. […] For the polymerization assay, reconstituted actin was mixed with supplemented Buffer G and samples in a white 96-well plate and then the polymerization reaction was induced with the addition of the Buffer P supplemented with 10 mM ATP. The solution was mixed and the data acquisition started. For the Actin Depolymerization Assay, supplemented Buffers P and G were mixed and incubated in a white 96-well plate at room temperature for one hour to polymerize the actin, protected from light. Then samples were added and the data acquisition started. Latrunculin A and Cytochalasin B were used as control molecules at a concentration of 5 μM. For both the assays, the assembly of actin filaments was determined by measuring the fluorescence (Ex/Em: 365/410 nm) in kinetic mode for 1 h at room temperature using a microplate reader.

The next data set has as its system MCF-10A cells. Put plainly: MTT assay, normal MCF-10A. It counts as cell-based, human. Particulars: 72 h, read-out: IC50 MCF-10A. Here is the method: (§4) The five employed cell lines were purchased from American Type Culture Collection (ATCC, Manassas, VA, USA) and maintained as already reported. […] SkBr3 cells were maintained in DMEM high glucose, supplemented with 10% FBS and 100 μg/mL penicillin/streptomycin.
[…] Results are represented as percent (%) of basal and the IC50 values were calculated using GraphPad Prism 9 (GraphPad Software, La Jolla, CA, USA).

For the next data set, the system named is β-actin in MCF-10A cells. Put plainly: Actin immunofluorescence, MCF-10A. It counts as cell-based, human. Particulars: 24 h; compounds at their IC50 value, LA 0.1 μM. Here is the method: (§5) The MitoTracker Deep Red FM probe (MitoTracker Mitochondrion-Selective Probes, Invitrogen European Headquarters, Paisley, PA4 9RF, UK) was used for mitochondrial staining, as previously described. For immunofluorescence analysis, the cells were seeded and further processed, as reported by Iacopetta et al.. The primary antibodies used were: rabbit anti-β-Actin and vimentin (Santa Cruz Biotechnology, Dallas, TX, USA), mouse anti cytochrome c and NF-κB p65 (Abcam, Cambridge, UK), diluted 1:100 in bovine serum albumin (BSA) 2% overnight at 4 °C. The secondary antibodies were: Alexa Fluor® 488 conjugate goat-anti-rabbit and Alexa Fluor® 568 conjugate goat-anti-mouse (Thermo Fisher Scientific, MA, USA), diluted 1:500 and incubated for 2h at 37 °C. DAPI 0.2 μg/mL (Sigma Aldrich, Milan, Italy) was used for nuclei staining. […] All the images were acquired and processed using the LAS-X software.
E: Figure S1. Actin immunofluorescence studies in MCF-10A cells […]
Figure S1. Actin immunofluorescence studies. M CF-10A cells were treat ed with compounds 1 and […]
treatment, the cells were methanol fixed, incubated with primary and secondary antibodies, stained with DAPI and observed and imaged under the inverted fluorescence microscope at 20x […]
A: nuclear stain with DAPI (λex/λem = 350/460 nm); Panels B: β-actin ([…]); Panels C: show a merge. R epresentative fields are shown.

The next data set relates to MCF-7 cells. Put plainly: MTT assay, MCF-7. It counts as cell-based, human. Particulars: read-out: IC50 MCF-7. Here is the method: as §1, §2
Data set [2] concerns Hek-293 cells. Kind of data set: MTT assay, normal Hek-293. It counts as cell-based, human. Particulars: read-out: IC50 Hek-293. Here is the method: as §4, §2
The target of data set [3] is T1, Labeled Rabbit Muscle Actin. Kind of data set: In vitro actin depolymerization assay. It counts as biochemical. Particulars: for effect on already polymerized actin (in words): 5 µM. Here is the method: as §3
For data set [4], the system named is β-actin in MDA-MB-231 cells. Kind of data set: Actin immunofluorescence, MDA-MB-231. It counts as cell-based, human. Particulars: 24 h; compound 1 at its IC50 value, LA 0.1 µM. Here is the method: as §5
Another data set relates to SkBr3 cells. Put plainly: MTT assay, SkBr3. It counts as cell-based, human. Particulars: read-out: IC50 SkBr3. Here is the method:
as §1, §2

The next data set relates to β-actin in MCF-7 cells. Kind of data set: Actin immunofluorescence, MCF-7. It counts as cell-based, human. Particulars: 24 h; compound 6 at its IC50 value, LA 0.1 µM. Here is the method: as §5
In data set [5] the test system is Hek-293 cells. Put plainly: MTT assay, normal Hek-293. It counts as cell-based, human. Particulars: up to the concentration of 200 μM.
Data set [6] can be described thus: LogP determination (1-octanol/water, UV/vis). It counts as physicochemical. Particulars: log[complex]oct/[complex]H2O, 55 μM, UV-Vis. Here is the method:
The logarithm of the partition coefficient (LogP) was evaluated by making a slight modification to the procedure reported in ref. [79]. Equal volumes of 1-octanol and water (distilled after milli-Q purification) were stirred for 20 h at room temperature. Then, they were separated to give 1-octanol-saturated water and water-saturated 1-octanol. Six (10, 20, 40, 50, 60 and 100 μM) standard concentrations of the compounds were prepared from the water-saturated 1-octanol. Analysis using UV/vis spectroscopy was used to obtain a calibration curve of absorbance vs. concentration. For each complex, a solution was prepared in the water-saturated 1-octanol (55 μM) and an equal volume of 1-octanol-saturated water was added. The solutions (biphasic) were mixed for 15 min and then centrifuged for 1h at 6500 rpm to allow separation.
Concentration in water-saturated 1-octanol was determined by UV-Vis spectroscopy. Reported LogP is defined as log[complex]oct/[complex]H2O.

Another data set has as its system vimentin in MCF-7 cells. Put plainly: Vimentin expression (immunofluorescence), MCF-7. Particulars: fluorescence quantification; IC50 value, 24 h. It counts as cell-based, human. Here is the method:
as §5
Protein lysates underwent the SDS-PAGE process, as already defined. Then lysates were resolved on a 7.5% SDS polyacrylamide gel, transferred to a nitrocellulose membrane, and probed with antibodies against vimentin and GAPDH (Santa Cruz Biotechnology, Dallas, TX, USA). […] The images are representative of three independent experiments.

[7] abbreviates: MTT, 72 h, normal cells, mean ± SD.

Read-outs that look alike come from different tables or passages of the source.

Broadly, the IC50 is the concentration that inhibits the measured activity by half. The term LogP denotes the decadic logarithm of the partition coefficient of the neutral form, usually between octanol and water.

As for `C/C1=C/C(=O)O[C@@H]2C[C@@H](CC[C@H](C)/C=C\C=C\CC1)O[C@@](O)([C@@H]1CSC(=O)N1)C2` [Latrunculin A, reference compound], the IC50 was determined as 0.024 µM in the data set on MDA-MB-231 cells (Homo sapiens, MDA-MB-231, 72 h); 0.045 µM with MCF-10A cells (Homo sapiens, MCF-10A); 0.14 µM with MCF-7 cells (Homo sapiens, MCF7, 72 h); 0.093 µM with Hek-293 cells [2] (Homo sapiens, HEK293, 72 h); 0.7 ± 1.2 µM with SkBr3 cells (Homo sapiens, SK-BR-3, 72 h). Further, in [1], the “actin polymerization curve, value 14 min after the reaction started” value is listed as “about 12.000 RFU”. The “effect on actin polymerization (in words)” value in data set [1] is reported as “impeded the actin polymerization”. Besides, in data set [1], the “actin polymerization curve, final value” is “about 10.000 RFU”. Moreover, the “actin organization in MCF-10A cells” value with β-actin in MCF-10A cells is “aberrant actin arrangement”. Moreover, the “effect on already polymerized actin (in words)” value in data set [3] is recorded as “triggered the actin depolymerization”. Also, the “actin depolymerization curve, end value” in [3] (5 µM added to actin polymerized for one hour, followed for another hour) amounted to 14.000 RFU. Further, the “actin depolymerization curve, value after the net decrease at about seven minutes” value in data set [3] (5 µM added to actin polymerized for one hour, initial value around 28.000 RFU) is “about 16.800 RFU”. Further, the “actin organization in MDA-MB-231 cells” value in data set [4] was “complete disorganization of the actin system”. Moreover, the “actin organization in MCF-7 cells” value in the data set on β-actin in MCF-7 cells is listed as “complete disorganization of the actin system”. Besides, in the data set on Hek-293 cells [5], the “cytotoxicity against the normal Hek-293 cells (in words)” value is reported as “drastically reduced”.
As for `CC(=O)[O-].Cn1ccn(CC(O)c2ccccc2)[c]1=[Au+]=[c]1n(C)ccn1CC(O)c1ccccc1` (centres unmarked) [Compound 5], the IC50 was 58.5 ± 1.2 µM in the data set on MDA-MB-231 cells (MTT, 72 h, mean ± SD); 27.8 ± 0.7 µM in the data set with MCF-10A cells (MTT, normal cells, mean ± SD); 21.9 ± 0.5 µM in the data set on MCF-7 cells (MTT, 72 h, mean ± SD); above 200 µM in the data set with Hek-293 cells [2] (setting [7]); 58.9 ± 1.2 µM in the data set on SkBr3 cells (MTT, 72 h, mean ± SD). Besides, in [6], the LogP came out at 0.12.
`CC(=O)[O-].Cn1ccn(CC([O-])c2ccccc2)[c]1=[Au+]=[c]1n(C)ccn1CC([O-])c1ccccc1.[Na+].[Na+]` (centres unmarked) [Compound 2]: the concentration for half-maximal inhibition (IC50) in the data set with MDA-MB-231 cells (MTT, 72 h, mean ± SD) is 22.6 ± 1.1 µM; with MCF-10A cells (MTT, normal cells, mean ± SD), 39.6 ± 0.5 µM; with MCF-7 cells (MTT, 72 h, mean ± SD) it was 30.6 ± 0.7 µM; in the data set with Hek-293 cells [2] (setting [7]), above 200 µM; with SkBr3 cells (MTT, 72 h, mean ± SD), 38.4 ± 0.4 µM. For the same compound, the “reduction of vimentin expression with respect to the control, MCF-7” value in the data set on vimentin in MCF-7 cells is given as “two times lower”. In data set [6], this compound came in with a log partition coefficient (LogP) of 0.047.
Regarding `CC(=O)[O-].COC(Cn1ccn(C)[c]1=[Au+]=[c]1n(C)ccn1CC(OC)c1ccccc1)c1ccccc1` (centres unmarked) [Compound 4, Bis [(N-methyl, N’(2-methoxy-2-phenyl-ethyl)imidazole-2-ylidine]gold(I)] acetate], the half-maximal inhibitory concentration (IC50) in the data set with MDA-MB-231 cells (MTT, 72 h, mean ± SD) stood at 3 ± 0.7 µM; in the data set with MCF-10A cells (MTT, normal cells, mean ± SD), 5.2 ± 0.9 µM; in the data set on MCF-7 cells (MTT, 72 h, mean ± SD) it was 9.4 ± 0.6 µM; with Hek-293 cells [2] (setting [7]), 7.6 ± 1 µM; with SkBr3 cells (MTT, 72 h, mean ± SD), 2.6 ± 0.7 µM.
For `C=C1[C@@H](C)[C@H]2[C@H](Cc3ccccc3)NC(=O)[C@]23OC(=O)/C=C/[C@H](O)CCC[C@@H](C)C/C=C/[C@H]3[C@@H]1O` [cytochalasin B], in data set [1], the “effect on actin polymerization (in words)” value is recorded as “impeded the actin polymerization” and the “actin polymerization curve, final value” is given as “ended almost at the same RFU value of the beginning”. For the same compound, the “effect on already polymerized actin (in words)” value in data set [3] is on record as “did not produce a significant decrease”.
As for `COC(Cn1ccn(C)[c]1=[Au+]=[c]1n(C)ccn1CC(OC)c1ccccc1)c1ccccc1.[Cl-]` (centres unmarked) [Compound 3], the IC50 in the data set on MDA-MB-231 cells (MTT, 72 h, mean ± SD) stood at 2.2 ± 1.1 µM; in the data set with MCF-10A cells (MTT, normal cells, mean ± SD), 13.3 ± 1 µM; with MCF-7 cells (MTT, 72 h, mean ± SD), 3.3 ± 1.4 µM; in the data set with Hek-293 cells [2] (setting [7]), 39 ± 0.9 µM; in the data set on SkBr3 cells (MTT, 72 h, mean ± SD), 10.9 ± 0.7 µM. In [6], this compound returned a LogP of 0.62.
Consider `N.N.[Cl][Pt][Cl]` [Cisplatin, reference compound], for which the concentration for half-maximal inhibition (IC50) with MDA-MB-231 cells (MTT, 72 h, mean ± SD) was found to be 28.7 ± 0.4 µM; in the data set on MCF-10A cells (MTT, normal cells, mean ± SD) it was 81.3 ± 0.6 µM; in the data set on MCF-7 cells (MTT, 72 h, mean ± SD), 35.8 ± 0.7 µM; with Hek-293 cells [2] (setting [7]), 16.3 ± 0.9 µM; in the data set with SkBr3 cells (MTT, 72 h, mean ± SD) it was 7.4 ± 0.9 µM.
